{
  "source": "ChEMBL document CHEMBL1201862",
  "about": "“PubChem BioAssay data set” (2004)",
  "assay_in_all_cases": "inhibition of tumour cell growth, NCI panel, 48 h",
  "key": {"786-0": {"tested_on": "786-0"}, "A498": {"tested_on": "A498"}, "A549": {"tested_on": "A549"}, "ACHN": {"tested_on": "ACHN"}, "BT-549": {"tested_on": "BT-549"}, "CAKI-1": {"tested_on": "CAKI-1"}, "CCRF-CEM": {"tested_on": "CCRF-CEM"}, "COLO 205": {"tested_on": "COLO 205"}, "DU-145": {"tested_on": "DU-145"}, "EKVX": {"tested_on": "EKVX"}, "HCC 2998": {"tested_on": "HCC 2998"}, "HCT-116": {"tested_on": "HCT-116"}, "HCT-15": {"tested_on": "HCT-15"}, "HL-60": {"tested_on": "HL-60"}, "HOP-62": {"tested_on": "HOP-62"}, "HOP-92": {"tested_on": "HOP-92"}, "HT-29": {"tested_on": "HT-29"}, "Hs-578T": {"tested_on": "Hs-578T"}, "IGROV-1": {"tested_on": "IGROV-1"}, "KM12": {"tested_on": "KM12"}, "LOX IMVI": {"tested_on": "LOX IMVI"}, "M14": {"tested_on": "M14"}, "MDA-MB-231": {"tested_on": "MDA-MB-231"}, "MDA-MB-435": {"tested_on": "MDA-MB-435"}, "MDA-N": {"tested_on": "MDA-N"}, "MOLT-4": {"tested_on": "MOLT-4"}, "Malme-3M": {"tested_on": "Malme-3M"}, "NCI-H226": {"tested_on": "NCI-H226"}, "NCI-H23": {"tested_on": "NCI-H23"}, "NCI-H460": {"tested_on": "NCI-H460"}, "NCI-H522": {"tested_on": "NCI-H522"}, "NCI/ADR-RES": {"tested_on": "NCI/ADR-RES"}, "OVCAR-3": {"tested_on": "OVCAR-3"}, "OVCAR-4": {"tested_on": "OVCAR-4"}, "OVCAR-5": {"tested_on": "OVCAR-5"}, "OVCAR-8": {"tested_on": "OVCAR-8"}, "PC-3": {"tested_on": "PC-3"}, "RPMI-8226": {"tested_on": "RPMI-8226"}, "RXF 393": {"tested_on": "RXF 393"}, "SF-268": {"tested_on": "SF-268"}, "SF-295": {"tested_on": "SF-295"}, "SF-539": {"tested_on": "SF-539"}, "SK-MEL-28": {"tested_on": "SK-MEL-28"}, "SK-MEL-2": {"tested_on": "SK-MEL-2"}, "SK-MEL-5": {"tested_on": "SK-MEL-5"}, "SK-OV-3": {"tested_on": "SK-OV-3"}, "SN12C": {"tested_on": "SN12C"}, "SNB-19": {"tested_on": "SNB-19"}, "SNB-75": {"tested_on": "SNB-75"}, "SR": {"tested_on": "SR"}, "SW-620": {"tested_on": "SW-620"}, "T47D": {"tested_on": "T47D"}, "TK-10": {"tested_on": "TK-10"}, "U-251": {"tested_on": "U-251"}, "UACC-257": {"tested_on": "UACC-257"}, "UACC-62": {"tested_on": "UACC-62"}},
  "note": "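Test compounds were applied to cells in 96-well plates for 48 hours at 5 doses. Abbreviation: GI50, concentration required for 50% inhibition of growth.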 The source made the active and inactive calls. No stated cut-off is given here; in the data, active = GI50 up to about 1.1 µM and inactive = higher.",
  "data": [
    {"smiles": "O=c1[nH]c2cc3[nH]c4ncccc4c(=O)c3cc2[nH]1", "values": [
      {"measurement": "GI50", "setting": "786-0", "value": "> 10 µM (inactive)"},
      {"measurement": "GI50", "setting": "A498", "value": "> 10 µM (inactive)"},
      {"measurement": "GI50", "setting": "A549", "value": "> 10 µM (inactive)"},
      {"measurement": "GI50", "setting": "ACHN", "value": "> 10 µM (inactive)"},
      {"measurement": "GI50", "setting": "BT-549", "value": "> 10 µM (inactive)"},
      {"measurement": "GI50", "setting": "CAKI-1", "value": "> 10 µM (inactive)"},
      {"measurement": "GI50", "setting": "CCRF-CEM", "value": "> 10 µM (inactive)"},
      {"measurement": "GI50", "setting": "COLO 205", "value": "> 10 µM (inactive)"},
      {"measurement": "GI50", "setting": "DU-145", "value": "> 10 µM (inactive)"},
      {"measurement": "GI50", "setting": "EKVX", "value": "> 10 µM (inactive)"},
      {"measurement": "GI50", "setting": "HCC 2998", "value": "> 10 µM (inactive)"},
      {"measurement": "GI50", "setting": "HCT-116", "value": "> 10 µM (inactive)"},
      {"measurement": "GI50", "setting": "HCT-15", "value": "> 10", "unit": "µM"},
      {"measurement": "GI50", "setting": "HL-60", "value": "> 10 µM (inactive)"},
      {"measurement": "GI50", "setting": "HOP-62", "value": "> 10 µM (inactive)"},
      {"measurement": "GI50", "setting": "HOP-92", "value": "> 10 µM (inactive)"},
      {"measurement": "GI50", "setting": "HT-29", "value": "> 10 µM (inactive)"},
      {"measurement": "GI50", "setting": "Hs-578T", "value": "> 10 µM (inactive)"},
      {"measurement": "GI50", "setting": "IGROV-1", "value": "> 10 µM (inactive)"},
      {"measurement": "GI50", "setting": "KM12", "value": "> 10 µM (inactive)"},
      {"measurement": "GI50", "setting": "LOX IMVI", "value": "> 10 µM (inactive)"},
      {"measurement": "GI50", "setting": "M14", "value": "> 10 µM (inactive)"},
      {"measurement": "GI50", "setting": "MDA-MB-231", "value": "> 10 µM (inactive)"},
      {"measurement": "GI50", "setting": "MDA-MB-435", "value": "> 10 µM (inactive)"},
      {"measurement": "GI50", "setting": "MDA-N", "value": "> 10 µM (inactive)"},
      {"measurement": "GI50", "setting": "MOLT-4", "value": "> 10 µM (inactive)"},
      {"measurement": "GI50", "setting": "Malme-3M", "value": "> 10 µM (inactive)"},
      {"measurement": "GI50", "setting": "NCI-H226", "value": "> 10 µM (inactive)"},
      {"measurement": "GI50", "setting": "NCI-H23", "value": "> 10 µM (inactive)"},
      {"measurement": "GI50", "setting": "NCI-H460", "value": "> 10 µM (inactive)"},
      {"measurement": "GI50", "setting": "NCI-H522", "value": "> 10 µM (inactive)"},
      {"measurement": "GI50", "setting": "NCI/ADR-RES", "value": "> 10 µM (inactive)"},
      {"measurement": "GI50", "setting": "OVCAR-3", "value": "> 10 µM (inactive)"},
      {"measurement": "GI50", "setting": "OVCAR-4", "value": "> 10 µM (inactive)"},
      {"measurement": "GI50", "setting": "OVCAR-5", "value": "> 10 µM (inactive)"},
      {"measurement": "GI50", "setting": "OVCAR-8", "value": "> 10 µM (inactive)"},
      {"measurement": "GI50", "setting": "PC-3", "value": "> 10 µM (inactive)"},
      {"measurement": "GI50", "setting": "RPMI-8226", "value": "> 10 µM (inactive)"},
      {"measurement": "GI50", "setting": "RXF 393", "value": "> 10 µM (inactive)"},
      {"measurement": "GI50", "setting": "SF-268", "value": "> 10 µM (inactive)"},
      {"measurement": "GI50", "setting": "SF-295", "value": "> 10 µM (inactive)"},
      {"measurement": "GI50", "setting": "SF-539", "value": "> 10 µM (inactive)"},
      {"measurement": "GI50", "setting": "SK-MEL-28", "value": "> 10 µM (inactive)"},
      {"measurement": "GI50", "setting": "SK-MEL-2", "value": "> 10 µM (inactive)"},
      {"measurement": "GI50", "setting": "SK-MEL-5", "value": "> 10 µM (inactive)"},
      {"measurement": "GI50", "setting": "SK-OV-3", "value": "> 10 µM (inactive)"},
      {"measurement": "GI50", "setting": "SN12C", "value": "> 10 µM (inactive)"},
      {"measurement": "GI50", "setting": "SNB-19", "value": "> 10 µM (inactive)"},
      {"measurement": "GI50", "setting": "SNB-75", "value": "> 10 µM (inactive)"},
      {"measurement": "GI50", "setting": "SR", "value": "> 10 µM (inactive)"},
      {"measurement": "GI50", "setting": "SW-620", "value": "> 10 µM (inactive)"},
      {"measurement": "GI50", "setting": "T47D", "value": "> 10 µM (inactive)"},
      {"measurement": "GI50", "setting": "TK-10", "value": "> 10 µM (inactive)"},
      {"measurement": "GI50", "setting": "U-251", "value": "> 10 µM (inactive)"},
      {"measurement": "GI50", "setting": "UACC-257", "value": "> 10 µM (inactive)"},
      {"measurement": "GI50", "setting": "UACC-62", "value": "> 10 µM (inactive)"}
    ]}
  ]
}
